In publication PMC11312998, “Molecular Pro-Apoptotic Activities of Flavanone Derivatives in Cyclodextrin Complexes: New Implications for Anticancer Therapy” (International Journal of Molecular Sciences, 2024):

Legend:
Assay type in all cases: cell-based, human
HCC38 [1] = experiment: Mitochondrial potential (ΔΨm), JC-1 method; details: IC50 concentration, 24 h
Description: 5,5,6,6-Tetrachloro-1,1,3,3-tetraethylbenzimidazolylcarbocyanine iodide (JC-1) is a cationic carbocyanine dye commonly used as a fluorescent probe to detect mitochondrial membrane depolarization. In living cells with an intact mitochondrial membrane, the lipophilic JC-1 penetrates the negatively charged mitochondrial matrix as a monomer. It then forms fluorescent aggregates with red-orange fluorescence (λex = 514 nm, λem = 590 nm). During depolarization of the mitochondrial membrane or in apoptotic cells, the concentration of JC-1 decreases, and the aggregates disintegrate into monomers emitting green fluorescence (λex = 514 nm, λem = 529 nm). The fluorescence ratio of aggregates (λem = 590 nm) and monomers (λem = 529 nm)—590 nm/529 nm—reflects the level of damage to the mitochondrial membrane.
The cells were seeded in black 96-well fluorometric microplates at a density of 10 × 10^3 cells per well. […] After incubation with the compounds, the medium was removed, the cell monolayer in the wells was washed twice with HBSS (140 mM NaCl, 5 mM KCl, 0.8 mM MgCl2, 1.8 mM CaCl2, 1 mM Na2HPO4, 10 mM HEPES and 1% glucose) and 50 μL of JC-1 solution in HBSS was added to each well (final probe concentration 5 μmol/L). Cells were incubated with the probe for 30 min in the dark in an incubator (37 °C). After incubation, the probe was removed and replaced with fresh HBSS buffer. Fluorescence measurements (Perkin-Elmer LS-5B spectrofluorometer, MA, USA) of JC-1 monomers and aggregates were made at the following excitation and emission wavelengths: λex = 514 nm, λem = 529 nm (monomers), λex = 514 nm, λem = 590 nm (aggregates). The results of the tested samples are presented as the percentage fluorescence ratio of JC-1 aggregates and JC-1 monomers relative to the fluorescence ratio of JC-1 aggregates and JC-1 monomers of the control, which was assumed to be 100%.
A positive control was formed of cells pre-incubated with 5 µmol/L carbonyl cyanide m-chlorophenylhydrazone (CCCP), a chemical inhibitor of oxidative phosphorylation that acts by uncoupling the protons flowing along the electrochemical gradient from phosphorylation.

RBCs [2] = experiment: Red blood cells lysis assay; details: 24 h
Experimental: The experiments on human blood were performed in accordance with Polish national guidelines, and the study protocols were approved by the Bioethics Committee of the Medical University of Lodz, Poland: approval no (RNN/104/20/KE). The blood samples were obtained from healthy donors at the Blood Donation Centre in Lodz. The procedure for […] for erythrotoxicity studies is given in a previous paper. The influence of the synthesized compounds, together with a reference compound on RBC membrane integrity, was performed by lysis assay, described elsewhere. Briefly, 2% RBC suspension in 0.9% NaCl was incubated at 37 °C for 24 h with the tested compounds at concentrations of 100 µmol/L, 50 µmol/L, 25 µmol/L, 10 µmol/L and 1 µmol/L. The samples were centrifuged at 3000 rpm for 10 min, and the absorbance of the supernatant was measured at 550 nm. […] A sample containing saline solution represented the spontaneous hemolysis of RBCs (control). The experiments were conducted using at least three different biological materials (n = 3). […] Additionally, erythrocyte morphology was evaluated using a phase contrast Opta-Tech inverted microscope at 400× magnification.

HCC38 [3] = experiment: Superoxide anion generation, DHE probe; details: IC50 concentration, 24 h
Experimental: (§1) The level of superoxide anion (O2^•−) was determined by microplate spectrofluorimetry with dihydroethidium (hydroethidine, DHE) (Life Technologies, Carlsbad, CA, USA), which is the most commonly used fluorogenic probe for monitoring the intracellular production of superoxide anion O2^•− [41]. […] Thanks to this shift, DHE can be used as a sensitive probe for cellular ROS. The reaction between superoxide and DHE generates a highly specific red fluorescent product, 2-hydroxyethidium (2-OH-E^+).
(§2) The cells were seeded in black 96-well fluorometric microplates at a density of 10 × 10^3 cells per well. […] After incubation, the medium was removed, the cell monolayer in the wells was washed twice with HBSS (140 mM NaCl, 5 mM KCl, 0.8 mM MgCl2, 1.8 mM CaCl2, 1 mM Na2HPO4, 10 mM HEPES and 1% glucose) and 50 μL of DHE solution in HBSS was added to each well (final probe concentration 5 μmol/L). Cells were incubated with the probe for 30 min in the dark in an incubator (37 °C), and then fluorescence was measured. The measurement was performed at the following excitation and fluorescence emission wavelengths: λex = 498 nm/λem = 582 nm. Fluorescence measurements were made on a Perkin-Elmer LS-5B spectrofluorometer (MA, USA). Fluorescence intensity values for control cells were arbitrarily set as 100%. The results are presented as percentages of control cell values, calculated relative to the fluorescence intensity of the controls (100%): sample fluorescence was calculated as Δf in relation to the controls.

Hec-1-A = experiment: Superoxide anion generation, DHE probe; details: IC50 concentration, 24 h
Experimental: as §1, §2

RBCs [4] = experiment: Erythrocyte morphology, phase contrast microscopy; details: 100 µmol/L; 24 h, 37 °C
Experimental: The experiments on human blood were performed in accordance with Polish national guidelines, and the study protocols were approved by the Bioethics Committee of the Medical University of Lodz, Poland: approval no (RNN/104/20/KE). The blood samples were obtained from healthy donors at the Blood Donation Centre in Lodz. The procedure for […] for erythrotoxicity studies is given in a previous paper. The influence of the synthesized compounds, together with a reference compound on RBC membrane integrity, was performed by lysis assay, described elsewhere. Briefly, 2% RBC suspension in 0.9% NaCl was incubated at 37 °C for 24 h with the tested compounds at concentrations of 100 µmol/L, 50 µmol/L, 25 µmol/L, 10 µmol/L and 1 µmol/L. The samples were centrifuged at 3000 rpm for 10 min, and the absorbance of the supernatant was measured at 550 nm. The results are presented as a percentage of hemolysis where a sample containing 10 μL of 2.0% v/v Triton X-100 was regarded as a positive control contributing to 100% of hemolysis. A sample containing saline solution represented the spontaneous hemolysis of RBCs (control). The experiments were conducted using at least three different biological materials (n = 3). […] Additionally, erythrocyte morphology was evaluated using a phase contrast Opta-Tech inverted microscope at 400× magnification.

[5] = concentration range of 1–25 µmol/L
[6] = concentrations of 50 µmol/L and 100 µmol/L

SMILES | change in mitochondrial potential (in words) (HCC38 [1]) | impact on % hemolysis (in words) (RBCs [2]; [5]) | impact on % hemolysis (in words) (RBCs [2]; [6]) | increase in superoxide anion / ROS relative to control (DHE probe) (HCC38 [3]) | rise of superoxide anion level compared to the control (DHE probe) (Hec-1-A) | RBC morphology (in words) (RBCs [4])
O=C1/C(=C/c2ccccc2)C(c2ccccc2)Oc2ccccc21 (centres unmarked) [Compound 5] | strong hyperpolarization | did not show a statistically significant impact | statistically significant increase in % hemolysis | – | – | –
O=C1/C(=C/c2ccccc2)COc2ccccc21 [Compound 1] | – | – | – | approximately 20% | – | –
COc1cccc(/C=C2/C(=O)c3ccccc3OC2c2ccccc2)c1 (centres unmarked) [Compound 3] | – | did not show a statistically significant impact | statistically significant increase in % hemolysis | – | approximately 20% | appearance of single eryptocytes
